Tests used:
DLD-1 = assay: Concentration required to inhibit nitric oxide synthesis in DLD-1 cells; format: functional, cell-based; conditions: Homo sapiens
Rattus norvegicus [1] = assay: Dose required for half maximal increase in mean arterial blood pressure of 40 mmHg after 15 min in anaesthetised rats, as a measure of eNOS activity; format: functional
Rattus norvegicus [2] = assay: In vivo inhibition of iNOS is determined from the inhibition of LPS-induced nitrite production measured in rat blood plasma at 800 umol/kg for 15 min; format: functional; conditions: 0.25 h
[3] = target: Nitric oxide synthase, inducible (Homo sapiens, UniProt P35228); assay: Ability to inhibit the conversion of [3H]L-Arg to [3H]L-citrulline catalyzed by i-NOS from human DLD-1 cells; format: functional, cell-based
Chain of Nitric oxide synthase, inducible (P35228 whole entry): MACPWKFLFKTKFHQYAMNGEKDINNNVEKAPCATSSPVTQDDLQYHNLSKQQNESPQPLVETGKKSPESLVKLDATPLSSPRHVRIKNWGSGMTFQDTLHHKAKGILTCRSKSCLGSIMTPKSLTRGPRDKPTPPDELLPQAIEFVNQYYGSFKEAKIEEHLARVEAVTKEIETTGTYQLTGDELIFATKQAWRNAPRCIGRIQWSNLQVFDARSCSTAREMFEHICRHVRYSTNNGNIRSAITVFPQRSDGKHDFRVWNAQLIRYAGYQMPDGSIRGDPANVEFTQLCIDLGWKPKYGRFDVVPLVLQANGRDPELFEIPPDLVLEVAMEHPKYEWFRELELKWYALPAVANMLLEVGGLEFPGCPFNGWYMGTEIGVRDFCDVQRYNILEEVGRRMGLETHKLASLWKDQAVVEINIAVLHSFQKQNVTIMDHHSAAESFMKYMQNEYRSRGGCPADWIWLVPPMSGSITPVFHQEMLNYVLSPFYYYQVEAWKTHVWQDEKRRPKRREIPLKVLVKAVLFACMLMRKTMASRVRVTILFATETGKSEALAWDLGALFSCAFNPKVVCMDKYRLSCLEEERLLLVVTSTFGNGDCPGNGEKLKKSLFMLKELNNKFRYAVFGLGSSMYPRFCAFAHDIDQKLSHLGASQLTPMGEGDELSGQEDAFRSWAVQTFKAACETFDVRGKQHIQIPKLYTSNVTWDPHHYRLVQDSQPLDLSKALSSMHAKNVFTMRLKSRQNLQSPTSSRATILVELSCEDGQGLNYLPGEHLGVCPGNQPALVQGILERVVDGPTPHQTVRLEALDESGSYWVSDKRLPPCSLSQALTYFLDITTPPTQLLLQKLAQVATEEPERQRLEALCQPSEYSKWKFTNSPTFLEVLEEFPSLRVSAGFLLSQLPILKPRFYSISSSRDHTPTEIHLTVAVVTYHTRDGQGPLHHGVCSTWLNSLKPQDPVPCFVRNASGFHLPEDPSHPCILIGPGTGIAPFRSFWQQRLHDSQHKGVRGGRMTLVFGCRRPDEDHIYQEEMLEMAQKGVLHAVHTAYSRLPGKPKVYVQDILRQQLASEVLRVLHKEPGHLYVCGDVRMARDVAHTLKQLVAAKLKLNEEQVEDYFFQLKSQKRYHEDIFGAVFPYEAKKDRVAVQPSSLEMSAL

Nitric oxide synthase 3 = target: T1, Nitric oxide synthase 3 (Homo sapiens, UniProt P29474); assay: Ability to inhibit the conversion of [3H]L-Arg to [3H]L-citrulline catalyzed by e-NOS from HUVEC cells; format: functional, cell-based
T1 sequence (P29474 whole entry): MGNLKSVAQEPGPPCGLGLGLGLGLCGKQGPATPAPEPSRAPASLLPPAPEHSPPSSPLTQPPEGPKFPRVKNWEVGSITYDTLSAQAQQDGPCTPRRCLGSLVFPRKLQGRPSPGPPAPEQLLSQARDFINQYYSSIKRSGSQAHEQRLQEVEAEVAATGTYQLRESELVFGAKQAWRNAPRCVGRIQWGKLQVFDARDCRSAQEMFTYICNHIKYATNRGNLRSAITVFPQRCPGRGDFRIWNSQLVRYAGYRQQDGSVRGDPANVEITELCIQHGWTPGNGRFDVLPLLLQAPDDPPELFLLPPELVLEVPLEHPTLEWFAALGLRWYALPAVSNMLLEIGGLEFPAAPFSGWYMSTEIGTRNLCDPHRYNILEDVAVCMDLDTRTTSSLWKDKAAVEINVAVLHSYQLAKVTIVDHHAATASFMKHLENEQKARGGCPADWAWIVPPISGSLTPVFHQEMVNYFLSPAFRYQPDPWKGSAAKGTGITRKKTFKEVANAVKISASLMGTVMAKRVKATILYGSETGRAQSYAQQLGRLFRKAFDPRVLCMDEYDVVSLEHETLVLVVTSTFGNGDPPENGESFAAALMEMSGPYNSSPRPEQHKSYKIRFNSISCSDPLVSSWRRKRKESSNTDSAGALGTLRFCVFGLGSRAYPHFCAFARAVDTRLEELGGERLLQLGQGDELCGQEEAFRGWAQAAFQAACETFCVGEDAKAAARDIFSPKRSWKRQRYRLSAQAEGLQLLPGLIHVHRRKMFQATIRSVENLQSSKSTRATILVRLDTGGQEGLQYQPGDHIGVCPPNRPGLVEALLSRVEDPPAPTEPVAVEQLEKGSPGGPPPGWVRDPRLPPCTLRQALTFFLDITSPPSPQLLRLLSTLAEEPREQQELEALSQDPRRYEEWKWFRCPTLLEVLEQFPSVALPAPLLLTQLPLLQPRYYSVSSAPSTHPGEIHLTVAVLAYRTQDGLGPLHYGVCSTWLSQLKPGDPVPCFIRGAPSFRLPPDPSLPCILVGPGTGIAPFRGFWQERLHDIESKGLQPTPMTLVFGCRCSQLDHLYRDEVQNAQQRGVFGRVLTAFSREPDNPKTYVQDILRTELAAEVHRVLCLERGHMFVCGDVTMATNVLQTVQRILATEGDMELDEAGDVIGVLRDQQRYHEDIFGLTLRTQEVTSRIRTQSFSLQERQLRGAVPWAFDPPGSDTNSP

Nitric oxide synthase 1 = Nitric oxide synthase 1 (Rattus norvegicus, UniProt P29476); assay: Ability to inhibit the conversion of [3H]-L-Arg to [3H]L-citrulline catalyzed by n-NOS from rat cerebellum; format: functional, tissue-based
Chain of Nitric oxide synthase 1 (P29476 whole entry): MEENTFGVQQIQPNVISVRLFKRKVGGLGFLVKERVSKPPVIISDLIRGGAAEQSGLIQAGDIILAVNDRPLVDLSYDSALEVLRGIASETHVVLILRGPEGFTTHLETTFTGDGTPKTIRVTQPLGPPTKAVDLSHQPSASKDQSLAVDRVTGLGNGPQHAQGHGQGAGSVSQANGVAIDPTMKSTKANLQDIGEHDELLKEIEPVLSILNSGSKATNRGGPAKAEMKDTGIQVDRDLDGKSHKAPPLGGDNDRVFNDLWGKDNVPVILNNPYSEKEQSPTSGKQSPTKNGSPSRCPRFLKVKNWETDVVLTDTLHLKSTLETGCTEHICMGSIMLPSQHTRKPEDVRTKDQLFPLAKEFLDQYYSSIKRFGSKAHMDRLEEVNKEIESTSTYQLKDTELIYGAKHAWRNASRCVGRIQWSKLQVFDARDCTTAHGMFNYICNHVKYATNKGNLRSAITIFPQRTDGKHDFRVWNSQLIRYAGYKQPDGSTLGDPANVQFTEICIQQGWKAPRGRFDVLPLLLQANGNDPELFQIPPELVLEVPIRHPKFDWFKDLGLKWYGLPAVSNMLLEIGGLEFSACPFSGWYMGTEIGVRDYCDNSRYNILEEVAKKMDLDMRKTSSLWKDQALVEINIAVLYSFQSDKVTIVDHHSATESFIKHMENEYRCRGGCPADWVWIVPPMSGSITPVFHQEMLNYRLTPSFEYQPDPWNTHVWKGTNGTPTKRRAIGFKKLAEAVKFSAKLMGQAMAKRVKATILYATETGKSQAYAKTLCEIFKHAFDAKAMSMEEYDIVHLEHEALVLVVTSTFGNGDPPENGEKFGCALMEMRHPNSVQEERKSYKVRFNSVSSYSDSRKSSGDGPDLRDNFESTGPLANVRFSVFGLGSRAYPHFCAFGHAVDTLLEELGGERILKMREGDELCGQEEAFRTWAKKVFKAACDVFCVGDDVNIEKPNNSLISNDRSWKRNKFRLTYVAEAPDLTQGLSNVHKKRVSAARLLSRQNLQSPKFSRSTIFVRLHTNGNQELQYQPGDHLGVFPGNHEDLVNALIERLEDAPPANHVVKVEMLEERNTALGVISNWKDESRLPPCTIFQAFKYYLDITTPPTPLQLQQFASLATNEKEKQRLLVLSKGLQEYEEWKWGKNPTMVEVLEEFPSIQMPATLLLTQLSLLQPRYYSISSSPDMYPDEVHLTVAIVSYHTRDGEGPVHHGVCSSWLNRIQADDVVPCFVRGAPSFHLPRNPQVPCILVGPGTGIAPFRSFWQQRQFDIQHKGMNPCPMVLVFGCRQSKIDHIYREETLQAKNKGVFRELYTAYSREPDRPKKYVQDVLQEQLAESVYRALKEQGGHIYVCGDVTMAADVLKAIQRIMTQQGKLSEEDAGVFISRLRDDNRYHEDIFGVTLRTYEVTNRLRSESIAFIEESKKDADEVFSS

HUVEC = assay: Ability to inhibit the conversion of [3H]L-Arg to [3H]L-citrulline catalyzed by e-NOS from HUVEC cells at 100 uM concentration; format: functional; conditions: Homo sapiens
Rattus norvegicus [4] = assay: In vivo inhibition of iNOS is determined from the inhibition of LPS-induced nitrite production measured in rat blood plasma at 3.2 umol/kg for 15 min; format: functional; conditions: 0.25 h

Compound | IC50 (DLD-1) | Dose (Rattus norvegicus [1]) | ED50 (Rattus norvegicus [2]) | IC50 [3] | IC50 (Nitric oxide synthase 3) | IC50 (Nitric oxide synthase 1) | inhibition at 100 µM (HUVEC) | ED50 (Rattus norvegicus [4])
CNC(=N)NCCCC(N)C(=O)O (single isomer, unassigned) [TILARGININE] | 170000 nM | 100 µM/kg | 100 µmol/kg | – | – | – | – | –
CC#CC1Cc2ccsc2C(N)=N1 (stereo not given) | 34000 nM | – | – | 150 nM | 5000 nM | 80 nM | – | –
NC1=NC(C2CC2)Cc2ccsc21 (stereo not given) | 3600 nM | – | – | 51 nM | 50 nM | 11 nM | – | –
NC1=NC(c2ccccc2)Cc2sccc21 (stereo not given) | – | – | – | 2700 nM | 9500 nM | 740 nM | – | –
NC1=NC(c2cccs2)Cc2ccsc21 (stereo not given) | 9200 nM | – | – | 150 nM | 1900 nM | 50 nM | – | –
NC1=NC(c2ccccc2)Cc2ccsc21 (stereo not given) | – | – | – | 8300 nM | 4000 nM | 140 nM | – | –
C#CC1Cc2cc(C)sc2C(N)=N1 (stereo not given) | – | – | – | 3500 nM | 10000 nM | 910 nM | – | –
NC1=NC(C#Cc2ccccc2)Cc2ccsc21 (stereo not given) | – | – | – | 28000 nM | – | 4100 nM | < 25% | –
CC(C)(C)C#CC1Cc2ccsc2C(N)=N1 (stereo not given) | – | – | – | 3600 nM | – | 10000 nM | < 25% | –
NC1=NC(C2CC2)Cc2sccc21 (stereo not given) | 8700 nM | – | – | 190 nM | 750 nM | 18 nM | – | –
C#CC1Cc2sccc2C(N)=N1 (stereo not given) | 15000 nM | – | – | 110 nM | 120 nM | 25 nM | – | –
NC1=NC(c2ccco2)Cc2ccsc21 (stereo not given) | 2200 nM | 0.4 µM/kg | – | 89 nM | 920 nM | 40 nM | – | 0.4 µmol/kg
C#CC1Cc2ccsc2C(N)=N1 (stereo not given) | 5800 nM | – | – | 40 nM | 80 nM | 6 nM | – | –
NC1=NC(c2cccnc2)Cc2ccsc21 (stereo not given) | – | – | – | 2800 nM | – | 260 nM | – | –
NC1=NCCc2ccsc21 | – | – | – | 730 nM | 280 nM | 550 nM | – | –
NC1=NCCc2sccc21 | – | – | – | 1600 nM | – | 100 nM | – | –

— ChEMBL document CHEMBL1134021, “Thienopyridines: nitric oxide synthase inhibitors with potent in vivo activity” (Bioorg Med Chem Lett, 2001)
